Values quoted from earlier work as cited in US20170312254A1, “Low Dose Pharmaceutical Composition” (Cipla Limited, priority 2010, published 2017).

Experiments:
[1] = premarketing studies

## O=C(O)c1ccc(-n2nc(-c3ccccc3O)nc2-c2ccccc2O)cc1 [Deferasirox, 4-[3,5-bis (2-hydroxyphenyl)-[1,2, 4]triazol-1-yl] enzoic acid]
[1]
  Elevations in liver transaminases, fraction of patients: ⅓
other
  Lipid solubility: highly lipid-soluble
  Water solubility: highly water insoluble
Lower pH
  Solubility in lower pH: practically insoluble
pH 6.8, until buffer strength is altered
  Solubility at pH 6.8: insoluble
